# Tested on: A375_NRAS_Q61K_DOXind
# Experiment: pERK immunofluorescence relative to doxycycline-induced cells with 1 uM vemurafenib alone; higher = more ERK phosphorylation (less pathway inhibition)
# Details: drug treatment time 24 h, doxycycline 1000 ng/mL, doxycycline pre-induction time 24 h, vemurafenib background 1 µM
# Summary of the method: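 A375 cells with doxycycline-inducible FLAG-tagged mutant NRAS were given doxycycline or mock for 24 h. They then received two-drug dose combinations with a third drug held at 1 uM for 24 h. Fixed cells were stained for phospho-ERK T202/Y204 and imaged at 10× on an Operetta, with FLAG-negative cells excluded. The cytosolic population mean is normalised to induced cells given the 1 uM drug alone; the value is the mean of 2 technical replicates. pERK was measured by immunofluorescence with FLAG-negative cells excluded. Averages of 2 technical replicates.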
smiles,measurement,setting,value
CNc1ncc2cc(-c3cc(NC(=O)NCCC(C)(C)C)c(F)cc3C)c(C)nc2n1 + O=C(c1ccc(F)c(F)c1Nc1ccc(I)cc1F)N1CC(O)([C@@H]2CCCCN2)C1 [Cobimetinib],pERK immunofluorescence,"drug A concentration 0 µM, drug B concentration 0.0001 µM",1.08
same,pERK immunofluorescence,"drug A concentration 0 µM, drug B concentration 0.000316228 µM",1.08
same,pERK immunofluorescence,"drug A concentration 0 µM, drug B concentration 0.001 µM",1.06
same,pERK immunofluorescence,"drug A concentration 0 µM, drug B concentration 0.00316228 µM",1.06
same,pERK immunofluorescence,"drug A concentration 0 µM, drug B concentration 0.01 µM",0.844
same,pERK immunofluorescence,"drug A concentration 0 µM, drug B concentration 0.0316228 µM",0.515
same,pERK immunofluorescence,"drug A concentration 0 µM, drug B concentration 0.1 µM",0.168
same,pERK immunofluorescence,"drug A concentration 0 µM, drug B concentration 0.316228 µM",0.0479
same,pERK immunofluorescence,"drug A concentration 0 µM, drug B concentration 1 µM",0.0212
same,pERK immunofluorescence,"drug A concentration 0.000316228 µM, drug B concentration 0 µM",0.724
same,pERK immunofluorescence,"drug A concentration 0.000316228 µM, drug B concentration 0.0001 µM",0.706
same,pERK immunofluorescence,"drug A concentration 0.000316228 µM, drug B concentration 0.000316228 µM",0.786
same,pERK immunofluorescence,"drug A concentration 0.000316228 µM, drug B concentration 0.001 µM",0.747
same,pERK immunofluorescence,"drug A concentration 0.000316228 µM, drug B concentration 0.00316228 µM",0.709
same,pERK immunofluorescence,"drug A concentration 0.000316228 µM, drug B concentration 0.01 µM",0.579
same,pERK immunofluorescence,"drug A concentration 0.000316228 µM, drug B concentration 0.0316228 µM",0.323
same,pERK immunofluorescence,"drug A concentration 0.000316228 µM, drug B concentration 0.1 µM",0.0754
same,pERK immunofluorescence,"drug A concentration 0.000316228 µM, drug B concentration 0.316228 µM",0.026
same,pERK immunofluorescence,"drug A concentration 0.000316228 µM, drug B concentration 1 µM",0.0165
same,pERK immunofluorescence,"drug A concentration 0.001 µM, drug B concentration 0 µM",0.696
same,pERK immunofluorescence,"drug A concentration 0.001 µM, drug B concentration 0.0001 µM",0.745
same,pERK immunofluorescence,"drug A concentration 0.001 µM, drug B concentration 0.000316228 µM",0.758
same,pERK immunofluorescence,"drug A concentration 0.001 µM, drug B concentration 0.001 µM",0.771
same,pERK immunofluorescence,"drug A concentration 0.001 µM, drug B concentration 0.00316228 µM",0.687
same,pERK immunofluorescence,"drug A concentration 0.001 µM, drug B concentration 0.01 µM",0.45
same,pERK immunofluorescence,"drug A concentration 0.001 µM, drug B concentration 0.0316228 µM",0.16
same,pERK immunofluorescence,"drug A concentration 0.001 µM, drug B concentration 0.1 µM",0.0453
same,pERK immunofluorescence,"drug A concentration 0.001 µM, drug B concentration 0.316228 µM",0.0201
same,pERK immunofluorescence,"drug A concentration 0.001 µM, drug B concentration 1 µM",0.016
same,pERK immunofluorescence,"drug A concentration 0.00316228 µM, drug B concentration 0 µM",0.664
same,pERK immunofluorescence,"drug A concentration 0.00316228 µM, drug B concentration 0.0001 µM",0.697
same,pERK immunofluorescence,"drug A concentration 0.00316228 µM, drug B concentration 0.000316228 µM",0.767
same,pERK immunofluorescence,"drug A concentration 0.00316228 µM, drug B concentration 0.001 µM",0.651
same,pERK immunofluorescence,"drug A concentration 0.00316228 µM, drug B concentration 0.00316228 µM",0.592
same,pERK immunofluorescence,"drug A concentration 0.00316228 µM, drug B concentration 0.01 µM",0.268
same,pERK immunofluorescence,"drug A concentration 0.00316228 µM, drug B concentration 0.0316228 µM",0.0865
same,pERK immunofluorescence,"drug A concentration 0.00316228 µM, drug B concentration 0.1 µM",0.0262
same,pERK immunofluorescence,"drug A concentration 0.00316228 µM, drug B concentration 0.316228 µM",0.0166
same,pERK immunofluorescence,"drug A concentration 0.00316228 µM, drug B concentration 1 µM",0.0158
same,pERK immunofluorescence,"drug A concentration 0.01 µM, drug B concentration 0 µM",0.583
same,pERK immunofluorescence,"drug A concentration 0.01 µM, drug B concentration 0.0001 µM",0.608
same,pERK immunofluorescence,"drug A concentration 0.01 µM, drug B concentration 0.000316228 µM",0.593
same,pERK immunofluorescence,"drug A concentration 0.01 µM, drug B concentration 0.001 µM",0.537
same,pERK immunofluorescence,"drug A concentration 0.01 µM, drug B concentration 0.00316228 µM",0.359
same,pERK immunofluorescence,"drug A concentration 0.01 µM, drug B concentration 0.01 µM",0.109
same,pERK immunofluorescence,"drug A concentration 0.01 µM, drug B concentration 0.0316228 µM",0.0388
same,pERK immunofluorescence,"drug A concentration 0.01 µM, drug B concentration 0.1 µM",0.0196
same,pERK immunofluorescence,"drug A concentration 0.01 µM, drug B concentration 0.316228 µM",0.0161
same,pERK immunofluorescence,"drug A concentration 0.01 µM, drug B concentration 1 µM",0.0166
same,pERK immunofluorescence,"drug A concentration 0.0316228 µM, drug B concentration 0 µM",0.455
same,pERK immunofluorescence,"drug A concentration 0.0316228 µM, drug B concentration 0.0001 µM",0.528
same,pERK immunofluorescence,"drug A concentration 0.0316228 µM, drug B concentration 0.000316228 µM",0.47
same,pERK immunofluorescence,"drug A concentration 0.0316228 µM, drug B concentration 0.001 µM",0.389
same,pERK immunofluorescence,"drug A concentration 0.0316228 µM, drug B concentration 0.00316228 µM",0.185
same,pERK immunofluorescence,"drug A concentration 0.0316228 µM, drug B concentration 0.01 µM",0.0635
same,pERK immunofluorescence,"drug A concentration 0.0316228 µM, drug B concentration 0.0316228 µM",0.0285
same,pERK immunofluorescence,"drug A concentration 0.0316228 µM, drug B concentration 0.1 µM",0.0172
same,pERK immunofluorescence,"drug A concentration 0.0316228 µM, drug B concentration 0.316228 µM",0.0158
same,pERK immunofluorescence,"drug A concentration 0.0316228 µM, drug B concentration 1 µM",0.0155
same,pERK immunofluorescence,"drug A concentration 0.1 µM, drug B concentration 0 µM",0.306
same,pERK immunofluorescence,"drug A concentration 0.1 µM, drug B concentration 0.0001 µM",0.31
same,pERK immunofluorescence,"drug A concentration 0.1 µM, drug B concentration 0.000316228 µM",0.287
same,pERK immunofluorescence,"drug A concentration 0.1 µM, drug B concentration 0.001 µM",0.187
same,pERK immunofluorescence,"drug A concentration 0.1 µM, drug B concentration 0.00316228 µM",0.0869
same,pERK immunofluorescence,"drug A concentration 0.1 µM, drug B concentration 0.01 µM",0.0387
same,pERK immunofluorescence,"drug A concentration 0.1 µM, drug B concentration 0.0316228 µM",0.0223
same,pERK immunofluorescence,"drug A concentration 0.1 µM, drug B concentration 0.1 µM",0.0174
same,pERK immunofluorescence,"drug A concentration 0.1 µM, drug B concentration 0.316228 µM",0.0169
same,pERK immunofluorescence,"drug A concentration 0.1 µM, drug B concentration 1 µM",0.0168
same,pERK immunofluorescence,"drug A concentration 0.316228 µM, drug B concentration 0 µM",0.122
same,pERK immunofluorescence,"drug A concentration 0.316228 µM, drug B concentration 0.0001 µM",0.116
same,pERK immunofluorescence,"drug A concentration 0.316228 µM, drug B concentration 0.000316228 µM",0.108
same,pERK immunofluorescence,"drug A concentration 0.316228 µM, drug B concentration 0.001 µM",0.077
same,pERK immunofluorescence,"drug A concentration 0.316228 µM, drug B concentration 0.00316228 µM",0.0399
same,pERK immunofluorescence,"drug A concentration 0.316228 µM, drug B concentration 0.01 µM",0.0224
same,pERK immunofluorescence,"drug A concentration 0.316228 µM, drug B concentration 0.0316228 µM",0.0172
same,pERK immunofluorescence,"drug A concentration 0.316228 µM, drug B concentration 0.1 µM",0.0164
same,pERK immunofluorescence,"drug A concentration 0.316228 µM, drug B concentration 0.316228 µM",0.0168
same,pERK immunofluorescence,"drug A concentration 0.316228 µM, drug B concentration 1 µM",0.017
same,pERK immunofluorescence,"drug A concentration 1 µM, drug B concentration 0 µM",0.0463
same,pERK immunofluorescence,"drug A concentration 1 µM, drug B concentration 0.0001 µM",0.045
same,pERK immunofluorescence,"drug A concentration 1 µM, drug B concentration 0.000316228 µM",0.0414
same,pERK immunofluorescence,"drug A concentration 1 µM, drug B concentration 0.001 µM",0.0293
same,pERK immunofluorescence,"drug A concentration 1 µM, drug B concentration 0.00316228 µM",0.0209
same,pERK immunofluorescence,"drug A concentration 1 µM, drug B concentration 0.01 µM",0.0181
same,pERK immunofluorescence,"drug A concentration 1 µM, drug B concentration 0.0316228 µM",0.0173
same,pERK immunofluorescence,"drug A concentration 1 µM, drug B concentration 0.1 µM",0.0169
same,pERK immunofluorescence,"drug A concentration 1 µM, drug B concentration 0.316228 µM",0.0172
same,pERK immunofluorescence,"drug A concentration 1 µM, drug B concentration 1 µM",0.0172
same,pERK immunofluorescence,"drug A concentration 3.16228 µM, drug B concentration 0 µM",0.0225
same,pERK immunofluorescence,"drug A concentration 3.16228 µM, drug B concentration 0.0001 µM",0.0225
same,pERK immunofluorescence,"drug A concentration 3.16228 µM, drug B concentration 0.000316228 µM",0.0215
same,pERK immunofluorescence,"drug A concentration 3.16228 µM, drug B concentration 0.001 µM",0.0203
same,pERK immunofluorescence,"drug A concentration 3.16228 µM, drug B concentration 0.00316228 µM",0.0207
same,pERK immunofluorescence,"drug A concentration 3.16228 µM, drug B concentration 0.01 µM",0.0173
same,pERK immunofluorescence,"drug A concentration 3.16228 µM, drug B concentration 0.0316228 µM",0.0169
same,pERK immunofluorescence,"drug A concentration 3.16228 µM, drug B concentration 0.1 µM",0.0175
same,pERK immunofluorescence,"drug A concentration 3.16228 µM, drug B concentration 0.316228 µM",0.0169
same,pERK immunofluorescence,"drug A concentration 3.16228 µM, drug B concentration 1 µM",0.0164
same,pERK immunofluorescence,"drug A concentration 10 µM, drug B concentration 0 µM",0.0198
same,pERK immunofluorescence,"drug A concentration 10 µM, drug B concentration 0.0001 µM",0.0196
same,pERK immunofluorescence,"drug A concentration 10 µM, drug B concentration 0.000316228 µM",0.0203
same,pERK immunofluorescence,"drug A concentration 10 µM, drug B concentration 0.001 µM",0.0186
same,pERK immunofluorescence,"drug A concentration 10 µM, drug B concentration 0.00316228 µM",0.0186
same,pERK immunofluorescence,"drug A concentration 10 µM, drug B concentration 0.01 µM",0.02
same,pERK immunofluorescence,"drug A concentration 10 µM, drug B concentration 0.0316228 µM",0.0189
same,pERK immunofluorescence,"drug A concentration 10 µM, drug B concentration 0.1 µM",0.0179
same,pERK immunofluorescence,"drug A concentration 10 µM, drug B concentration 0.316228 µM",0.0182
same,pERK immunofluorescence,"drug A concentration 10 µM, drug B concentration 1 µM",0.0184

# From the supplement of paper PMC9912026
